# Legend:
# Assay type in all cases: physicochemical
# [1] = Bakelite 180° peel strength test
# Experimental: Peel strength was measured by coating each sample onto a PET strip 25 mm wide and 100 mm long and applying the strip to a bakelite plate. Then, a roller having a load of 300 g is rolled back and forth thereon to secure the sample to the plate. The sample is subsequently peeled off at an angle of 180° at a rate of 300 mm/min. to determine peel force. Unless otherwise specified, peel force is measured herein by this test.
# In this Example, PET strips were 20 mm in width. In the adhesive of Example 1, adipic acid diamine was dissolved in methanol+water (19:1 by volume) to a concentration of 0.5%.
# The Nitto Adhesive was dissolved in ethyl acetate. The cross-linking agent (aluminium tri-acetylacetonate) was dissolved in acetylacetone+ethylacetate (1:1 by volume) solution to a concentration of 0.5%.
# IPM was used as plasticiser for both. Heating was at 80° C. for 20 minutes in both cases.
# [2] = Saturation concentration of drugs in adhesives (crystallisation); design: key: No crystallisation. Drug is dissolved; ¦: Crystallisation; details: IPM 1.0 g
# From the text: Oestradiol (a hydrophobic drug) and piroxicam (a hydrophilic drug), were investigated to establish their saturation concentrations in the two adhesives. As before, formulations 3 in each of Tables 9 and 10 were used.
# [3] = Stability of drugs in Nitto adhesive
# Experimental: The mixed solutions were coated onto PET film and heated at 80° C. for 20 minutes. The content of drug was determined immediately after preparation and after storage for 6 days at 60° C.
# [4] = Stability of drug-containing patches, adhesive of the invention; details: 6 days at 60° C.
# Experimental: The mixed solutions were coated onto PET film and heated at 80° C. for 20 minutes. The content of drug was determined both immediately after preparation and after storage at 6 days at 60° C.
# [5] = Adhesive B from Example 11, diethylene triamine 20 mg as cross-linker
# [6] = allyl acetoacetate polymer of Example 9, 0.8 g of plasticiser, adipic acid diamine cross-linked
# [7] = Nitto Adhesive 1.0 g, cross-linker 10 mg, drug 40
# [8] = Nitto Adhesive 1.0 g, cross-linker 10 mg, drug 50
# [9] = Nitto Adhesive 1.0 g, cross-linker 10 mg, drug 75
Structure (SMILES),"Adhesion strength [1, 5]","Adhesion strength [1, 6]","Crystallisation [2, 7]","Crystallisation [2, 8]","Crystallisation [2, 9]",deterioration of drug content after storage [4],further results
"CCCCCCCC/C=C\CCCCCCCC(=O)OC [MO, methyl oleate]",35 g/25 mm,95 g/20 mm,,,,,
CN1C(C(=O)Nc2ccccn2)=C(O)c2ccccc2S1(=O)=O [Piroxicam],,,¦,¦,¦,no measurable deterioration,"Crystallisation ([2]; Adhesive of invention 1.0 g, cross-linker 3.0 mg, drug 50): ¦; Crystallisation ([2]; Adhesive of invention 1.0 g, cross-linker 3.0 mg, drug 75): ¦; stability of drug ([3]; during the preparation process and after heating 60° C. for 6 days): stable"
"CCCCCCCCCCCCCC(=O)OC(C)C [IPM, isopropyl myristate]",30 g/25 mm,80 g/20 mm,,,,,

# Now from value to molecule, other results behind:
"Adhesion strength [1, 5]","Adhesion strength [1, 6]","Crystallisation [2, 7]","Crystallisation [2, 8]","Crystallisation [2, 9]",deterioration of drug content after storage [4],Structure (SMILES),further results
,,¦,¦,¦,,C[C@]12CC[C@@H]3c4ccc(O)cc4CC[C@H]3[C@@H]1CC[C@@H]2O [oestradiol],"Crystallisation ([2]; Adhesive of invention 1.0 g, cross-linker 3.0 mg, drug 120 mg): ¦; Crystallisation ([2]; Adhesive of invention 1.0 g, cross-linker 3.0 mg, drug 150 mg): ¦"
,,,,,no measurable deterioration,C=C1CC[C@H](O)C/C1=C/C=C1\CCC[C@]2(C)[C@@H]([C@H](C)/C=C/[C@H](C)C(C)C)CC[C@@H]12 [vitamin D2],"decomposed further during the 6 day storage period ([3]; 6 days at 60° C.): 20%; decomposed during the preparation process ([3]; coated onto PET film, 80° C. for 20 minutes): ca. 30%"
